Among the data in US10669252B2, “Benzazepine derivative, preparation method, pharmaceutical composition and use thereof” (SHANGHAI DE NOVO PHARMATECH CO., LTD., priority 2016, dated 2020) are EC50 values, retold here.

One assay deals with T1, TLR8 (Homo sapiens, UniProt Q9NR97).
T1 construct: host or cells: HEK293 (HEK-BLUE-hTLR8)
T1 sequence (Q9NR97 27-1041): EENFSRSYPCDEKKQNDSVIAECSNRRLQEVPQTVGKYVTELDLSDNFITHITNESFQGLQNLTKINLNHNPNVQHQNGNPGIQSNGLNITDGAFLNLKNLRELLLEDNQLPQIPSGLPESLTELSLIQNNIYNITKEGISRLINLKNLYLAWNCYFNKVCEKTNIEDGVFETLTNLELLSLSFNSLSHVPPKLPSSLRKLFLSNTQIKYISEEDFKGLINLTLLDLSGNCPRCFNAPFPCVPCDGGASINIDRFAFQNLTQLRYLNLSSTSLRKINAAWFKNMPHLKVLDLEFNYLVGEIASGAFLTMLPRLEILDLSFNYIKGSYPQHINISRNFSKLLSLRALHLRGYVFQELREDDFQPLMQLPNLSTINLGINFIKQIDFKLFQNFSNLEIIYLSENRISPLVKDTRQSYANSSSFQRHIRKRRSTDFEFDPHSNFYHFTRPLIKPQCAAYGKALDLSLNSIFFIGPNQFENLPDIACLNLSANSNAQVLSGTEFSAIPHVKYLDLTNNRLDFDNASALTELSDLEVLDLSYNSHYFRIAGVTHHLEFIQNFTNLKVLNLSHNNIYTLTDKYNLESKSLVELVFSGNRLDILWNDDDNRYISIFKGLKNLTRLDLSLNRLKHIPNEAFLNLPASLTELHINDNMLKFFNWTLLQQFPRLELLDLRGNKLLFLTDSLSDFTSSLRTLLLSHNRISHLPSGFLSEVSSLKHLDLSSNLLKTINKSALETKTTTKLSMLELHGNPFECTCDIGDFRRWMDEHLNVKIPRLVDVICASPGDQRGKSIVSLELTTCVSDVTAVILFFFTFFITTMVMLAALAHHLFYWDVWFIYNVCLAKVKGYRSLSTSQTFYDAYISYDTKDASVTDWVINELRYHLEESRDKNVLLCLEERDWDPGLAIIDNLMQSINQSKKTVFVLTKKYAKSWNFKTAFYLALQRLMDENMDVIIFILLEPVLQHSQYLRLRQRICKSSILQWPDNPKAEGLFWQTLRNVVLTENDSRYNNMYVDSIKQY
Description: TLR8 cell based assay (HEK-BLUE-hTLR8, SEAP reporter linked to NF-κB activation). To be noted: HEK-BLUE-hTLR8 cells. As to the method: In this assay, the bioactivity of compound of formula Iw as measured using a cell based assay. The assay was performed in human embryonic kidney cells (HEK293) expressing TLR8 or other TLR family members such as TLR4, TLR7 and TLR9 (for selectivity screens). The activity of specific TLR agonists was assessed using the secretory embryonic alkaline phosphatase (SEAP) reporter gene that is linked to NF-κB activation in response to TLR stimulation. The SEAP activity was measured using the Quanti-Blue substrate (InvivoGen) after TLR agonist treatment.
(§1) The detailed experimental method is as follow:
HEK-BLUE-hTLR8 cell line was purchased from InvivoGen. The cells were cultured in Dulbecco's Modified Eagle's Media containing 4.5 g/L […] (Sigma-Aldrich) and 10% FBS. The cells were cultured at 37° C., 95% humidity and 5% CO2.
Test concentrations of the compounds ranged from 0.5 nM to 15 μM with 10 points. A known TLR8 agonist was added as positive control and 1 μl of DMSO was added as negative control.
The cells were prepared as follows: The cells were removed from the incubator and growth medium was discarded. The cells were gently rinsed with pre-warmed 10 ml PBS for a T-150 flask. 12 ml pre-warmed growth medium was added, and the cells were detached by tapping the flask. Cell clumps were dissociated by gently pipetting up and down. The cells were counted. Single cell suspension was prepared at 200,000 cells per ml in growth medium and 200 μl of the cell suspension (40,000 cells per well) were immediately added to each well of the plate. The final DMSO concentration of each well was 0.5%.
The cells were cultured and treated with the compounds at 37° C., 5% CO2 for 24 h.
(§2) 20 μL of the supernatant of each well were added to 180 μL of QUANTI-Blue, and the plates were incubated at 37° C. for 1.5 hour. Optical density was measured using a spectrophotometer at 650 nm (OD data). Activivation was calculated by using the equation below: Activivation %=(Compound OD mean value−DMSO OD mean value)/(positive control OD mean value−DMSO OD mean value)×100
(§3) The data were analyzed using the GraphPad to get EC50 values and fitting dose response curves of the compounds.

Another assay addresses T2, TLR7 (Homo sapiens, UniProt Q9NYK1).
T2 construct: host or cells: HEK293 (HEK-BLUE-hTLR7)
T2 sequence (Q9NYK1 27-1049): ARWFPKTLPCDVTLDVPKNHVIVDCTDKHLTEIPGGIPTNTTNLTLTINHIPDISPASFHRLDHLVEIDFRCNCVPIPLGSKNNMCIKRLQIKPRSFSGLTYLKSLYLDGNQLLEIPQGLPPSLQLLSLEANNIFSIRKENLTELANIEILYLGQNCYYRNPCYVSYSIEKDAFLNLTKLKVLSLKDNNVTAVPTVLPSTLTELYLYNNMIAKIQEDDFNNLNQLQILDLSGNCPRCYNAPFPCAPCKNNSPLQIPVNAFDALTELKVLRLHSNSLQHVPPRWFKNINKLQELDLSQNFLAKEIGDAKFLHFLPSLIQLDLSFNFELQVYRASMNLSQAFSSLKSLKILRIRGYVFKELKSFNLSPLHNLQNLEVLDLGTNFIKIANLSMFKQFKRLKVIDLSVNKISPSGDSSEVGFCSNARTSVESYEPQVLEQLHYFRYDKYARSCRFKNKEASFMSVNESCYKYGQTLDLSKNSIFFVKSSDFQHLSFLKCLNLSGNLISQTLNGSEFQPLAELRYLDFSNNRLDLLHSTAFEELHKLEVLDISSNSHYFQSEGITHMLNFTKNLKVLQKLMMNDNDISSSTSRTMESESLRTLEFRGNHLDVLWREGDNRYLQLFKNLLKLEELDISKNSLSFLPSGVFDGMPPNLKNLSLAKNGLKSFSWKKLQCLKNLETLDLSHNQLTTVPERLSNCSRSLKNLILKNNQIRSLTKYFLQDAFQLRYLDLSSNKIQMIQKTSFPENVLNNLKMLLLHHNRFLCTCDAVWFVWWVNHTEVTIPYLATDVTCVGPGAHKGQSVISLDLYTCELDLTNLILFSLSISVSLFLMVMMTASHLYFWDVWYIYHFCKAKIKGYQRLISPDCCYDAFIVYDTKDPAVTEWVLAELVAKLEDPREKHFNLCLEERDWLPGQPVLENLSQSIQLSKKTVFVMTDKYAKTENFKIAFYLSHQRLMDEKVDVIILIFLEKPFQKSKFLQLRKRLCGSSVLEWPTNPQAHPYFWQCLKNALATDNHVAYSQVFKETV
Description: TLR7 cell based assay (HEK-BLUE-hTLR7, SEAP reporter linked to NF-κB activation). The note with it: HEK-BLUE-hTLR7 cells, 24 hours treatment, SEAP/QUANTI-Blue readout. As to the method:
In this assay, the bioactivity of compound of formula (I) was measured using a cell based assay. The assay was performed in human embryonic kidney cells (HEK293) expressing TLR7 or other TLR family members such as TLR4, and TLR9 (for selectivity screens). The activity of specific TLR agonists was assessed using the secretory embryonic alkaline phosphatase (SEAP) reporter gene that is linked to NF-κB activation in response to TLR stimulation. The SEAP activity was measured using the Quanti-Blue substrate (InvivoGen) after TLR agonist treatment.
as §1
HEK-BLUE-hTLR7 cell line was purchased from InvivoGen. The cells were cultured in Dulbecco's Modified Eagle's Media containing 4.5 g/L […] (Sigma-Aldrich) and 10% FBS. The cells were cultured at 37° C., 95% humidity and 5% CO2.
[…] A known TLR8 agonist was added as positive control and 1 μl of DMSO was added as negative control.
The cells were prepared as follows. The cells were removed from the incubator and growth medium was discarded. The cells were gently rinsed with pre-warmed 10 ml PBS for a T-150 flask. 12 ml pre-warmed growth medium was added, and the cells were detached by tapping the flask. Cell clumps were dissociated by gently pipetting up and down. The cells were counted. Single cell suspension was prepared at 200,000 cells per ml in growth medium and 200 μl of the cell suspension (40,000 cells per well) were immediately added to each well of the plate. The final DMSO concentration of each well was 0.5%.
The cells were cultured and treated with the compounds at 37° C., 5% CO2 for 24 hours.
as §2, §3

Setting [1] is: 24 h treatment, SEAP/QUANTI-Blue readout.

On to `CCCN(CCC)C(=O)C1=Cc2ccc(-c3ccc4c(=O)n(Cc5ncco5)ncc4c3)cc2N=C(N)C1` [Compound 1-8-15], for which the results for the EC50 on TLR8 (setting [1]) and at TLR7 were less than 100 nM and 10000 to 50000 nM, respectively. On to `CCCN(CCC)C(=O)C1=Cc2ccc(-c3ccc4c(=O)n(CCS(C)(=O)=O)ccc4c3)cc2N=C(N)C1` [Compound 1-2-23], for which the results for the EC50 at TLR8 (setting [1]) and on TLR7 were less than 100 nM and more than 50000 nM, respectively. The like results for `CCCN(CCC)C(=O)C1=Cc2ccc(-c3ccc4c(=O)n(CCNS(C)(=O)=O)ccc4c3)cc2N=C(N)C1` [Compound 1-2-19] were, in that order, less than 100 nM and more than 50000 nM.

Consider `CCCN(CCC)C(=O)C1=Cc2ccc(-c3ccc4c(=O)n(CCO)c(=O)n(C)c4c3)cc2N=C(N)C1` [Compound 1-9-1], for which the values for the EC50 at TLR8 (setting [1]) and at TLR7 were less than 100 nM and more than 50000 nM, respectively. `CCCN(CCC)C(=O)C1=Cc2ccc(-c3ccc4c(=O)n(CC(=O)NC)c(=O)n(C)c4c3)cc2N=C(N)C1` [Compound 1-9-2]: the EC50 was less than 100 nM on TLR8 (setting [1]) and more than 50000 nM at TLR7. For the compound `CCCN(CCC)C(=O)C1=Cc2c(F)cc(-c3ccc4c(=O)n(CC(N)=O)ccc4c3)cc2N=C(N)C1` [Compound 1-10-1], the EC50 on TLR8 (setting [1]) was less than 100 nM; on TLR7, more than 50000 nM. The like results for `CCCN(CCC)C(=O)C1=Cc2cc(F)c(-c3ccc4c(=O)n(CC(N)=O)ccc4c3)cc2N=C(N)C1` [Compound 1-11-1] were, in that order, 1000 to 10000 nM and more than 50000 nM. Turning to `CCCN(CCC)C(=O)C1=Cc2ccc(-c3ccc4c(=O)n(Cc5ncccn5)ccc4c3)cc2N=C(N)C1` [Compound 1-2-31], the figures for the EC50 at TLR8 (setting [1]), at TLR8 (bound stated) and on TLR7 were less than 100 nM, less than 10 nM and 10000 to 50000 nM, respectively. Take `CCCN(CCC)C(=O)C1=Cc2ccc(-c3ccc4c(=O)n(CCP(=O)(OCC)OCC)ccc4c3)cc2N=C(N)C1` [Compound 1-2-43]: the values for the EC50 on TLR8 (setting [1]) and on TLR7 were 100 to 1000 nM and more than 50000 nM, respectively. For the compound `CCCN(CCC)C(=O)C1=Cc2ccc(-c3ccc4c(=O)n(Cc5ncco5)ccc4c3)cc2N=C(N)C1` [Compound 1-2-28], the figures for the EC50 at TLR8 (setting [1]) and on TLR7 were less than 100 nM and 10000 to 50000 nM, respectively. For `CCCN(CCC)C(=O)C1=Cc2ccc(-c3ccc4c(=O)n(CC(N)=O)c(C)cc4c3)cc2N=C(N)C1` [Compound 1-2-16], in that order: less than 100 nM and more than 50000 nM. The like results for `CCCN(CCC)C(=O)C1=Cc2ccc(-c3ccc4c(=O)n(CC(N)=O)ncc4c3)cc2N=C(N)C1` [Compound 1-8-1] were, in that order, less than 100 nM and more than 50000 nM. Consider `CCCN(CCC)C(=O)C1=Cc2c(F)cc(-c3ccc4c(=O)n(CC(=O)N(C)C)ccc4c3)cc2N=C(N)C1` [Compound 1-10-9], for which the EC50 at TLR8 (setting [1]) was less than 100 nM; at TLR7 it was 1000 to 10000 nM. The like results for `CCCN(CCC)C(=O)C1=Cc2ccc(-c3ccc4c(=O)n(CC(C)(C)O)ccc4c3)cc2N=C(N)C1` [Compound 1-2-13] were, in that order, less than 100 nM and more than 50000 nM.

In the case of `CCCN(CCC)C(=O)C1=Cc2ccc(-c3ccc4c(=O)n(CC(=O)NC)ncc4c3)cc2N=C(N)C1` [Compound 1-8-2], the EC50 is less than 100 nM on TLR8 (setting [1]) and more than 50000 nM at TLR7. For `CCCN(CCC)C(=O)C1=Cc2c(C)cc(-c3ccc4c(=O)n(CCS(C)(=O)=O)ncc4c3)cc2N=C(N)C1` [Compound 2-2-2], the EC50 at TLR8 (setting [1]) is less than 100 nM; on TLR7, 10000 to 50000 nM.

Compound `CCCN(CCC)C(=O)C1=Cc2c(F)cc(-c3ccc4c(=O)n(CCS(C)(=O)=O)ncc4c3)cc2N=C(N)C1` [Compound 1-10-2] registered an EC50 on TLR8 (setting [1]) of less than 100 nM. At TLR8 (setting [1]), `CCCN(CCC)C(=O)C1=Cc2ccc(-c3ccc4c(=O)n(Cc5cc[nH]n5)ccc4c3)cc2N=C(N)C1` [Compound 1-2-34] showed an EC50 of less than 100 nM.

Take `CCCN(CCC)C(=O)C1=Cc2ccc(-c3ccc4c(=O)n(CCc5cnccn5)ccc4c3)cc2N=C(N)C1` [Compound 1-2-47]: at TLR8 (setting [1]), the EC50 is 100 to 1000 nM. For `CCCN(CCC)C(=O)C1=Cc2ccc(-c3ccc4c(=O)n(Cc5nc(C)cc(C)n5)ncc4c3)cc2N=C(N)C1` [Compound 1-8-17], the EC50 is less than 100 nM at TLR8 (setting [1]) and less than 10 nM on TLR8 (bound stated). On TLR8 (setting [1]), `CCCN(CCC)C(=O)C1=Cc2ccc(-c3ccc4c(=O)n(CCc5ccccn5)ccc4c3)cc2N=C(N)C1` [Compound 1-2-50] registered an EC50 of 100 to 1000 nM. Consider `CCCN(CCC)C(=O)C1=Cc2ccc(-c3ccc4c(=O)n(CCNS(N)(=O)=O)ccc4c3)cc2N=C(N)C1` [Compound 1-2-20], for which the EC50 at TLR8 (setting [1]) was in the range of 100 to 1000 nM.

One may read the EC50 as the concentration needed to bring the measured effect to its halfway point. A lower EC50 goes with higher potency in that assay.
